Where two headings read alike, the source gives them in different places.
Target: recombinant eIF4E (Homo sapiens (Human), UniProt P06730)
Assay: Fluorescence polarization competition assay for eIF4E binding potency
Method in brief: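 Competitive displacement format: compounds compete with a fluorescent m7GDP tracer (20 nM) for 75 nM recombinant eIF4E. Incubation is 30 min at room temperature, protected from light, with 1% DMSO. Polarization read gives IC50 over eight 3-fold concentrations.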

[1] = inhibition of eIF4E/EDA-m7GDP-ATTO-550 binding, calculated IC50 values, Table 4B, read-out: IC50
[2] = fluorescence polarization competition, 75 nM recombinant eIF4E, 20 nM EDA-m7GDP-ATTO-550, IC50 class, read-out: elF4E FP
[3] = inhibition of eIF4E/EDA-m7GDP-ATTO-550 binding by 50%, Table 4B calculated values, read-out: IC50

Chain of recombinant eIF4E (P06730 whole entry): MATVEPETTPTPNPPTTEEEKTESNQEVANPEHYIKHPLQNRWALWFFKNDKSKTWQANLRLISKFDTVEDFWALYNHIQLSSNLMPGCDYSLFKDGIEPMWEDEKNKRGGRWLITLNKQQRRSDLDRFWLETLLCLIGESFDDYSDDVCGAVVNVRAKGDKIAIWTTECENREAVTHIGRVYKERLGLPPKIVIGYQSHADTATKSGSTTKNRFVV

CCN(c1ncc2nc(C)n(CC#Cc3ccc(Cl)cc3-c3ccnc4c(C(=O)NS(=O)(=O)c5ccccn5)csc34)c(=O)c2c1C#N)C1CCN([C@H]2C[C@@H](OC(F)(F)F)C2)CC1 [compound 1781] gave an IC50 [1] of 8.32 nM.
For Cc1nc2cc(C(F)(F)F)cc(C#N)c2c(=O)n1CCOc1ccc(Cl)cc1-c1ccnc2c(C(F)(F)C(=O)O)csc12 [compound 295], the IC50 [2] was 50 to 1000 nM and the IC50 [3] was 167 nM.
In the case of Cc1cc(-c2cc(Cl)ccc2OCCn2c(C)nc3cc(Cl)c(N4CC(S(C)(=O)=O)C4)c(C#N)c3c2=O)c2scc(C(=O)O)c2n1 [compound 702], the IC50 [2] is reported as under 50 nM and the IC50 [3] is reported as 12.7 nM.
For Cc1ccc(-c2cc(Cl)ccc2OCCn2c(C)nc3c(N(C)C)ncc(C#N)c3c2=O)c2scc(C(=O)O)c12 [compound 725], the IC50 [2] was under 50 nM and the IC50 [3] was 38.2 nM.
Work on Cc1cccc(-c2c(C(F)(F)F)cc3nc(C)n(CCOc4ccc(Cl)cc4-c4cc(C)nc5c(C(=O)O)csc45)c(=O)c3c2C#N)n1 [compound 675] yielded an IC50 [2] of under 50 nM and an IC50 [3] of 7.77 nM.
Work on Cc1nc2cnc(N(C)C3CCN(C4CC(F)(F)C4)CC3)c(C#N)c2c(=O)n1CC#Cc1ccc(Cl)cc1-c1ccnc2c(C(=O)NS(=O)(=O)CCC#N)csc12 [compound 1826] yielded an IC50 [1] of 18.4 nM.
In the case of Cc1nc2cnc(N(C)C3CCN(CC4CC4)CC3)c(C#N)c2c(=O)n1CCOc1ccc(Cl)cc1-c1ccnc2c(C(=O)O)csc12 [compound 1370], the IC50 [1] is reported as 19.9 nM.
Compound Cc1sc2c(-c3cc(Cl)ccc3OCCn3c(C)nc4cc(C(F)(F)F)c(N5CCN(C)CC5=O)c(C#N)c4c3=O)ccnc2c1C(=O)O [compound 1272] has an IC50 [1] of 28.1 nM.
Work on Cc1nc2cnc(N(C)C3CCN(C4CC(F)(F)C4)CC3)c(C#N)c2c(=O)n1CC#Cc1ccc(Cl)cc1-c1ccnc2c(C(=O)NS(=O)(=O)c3ccccn3)csc12 [compound 1830] yielded an IC50 [1] of 8.06 nM.
For Cc1cc(-c2cc(Cl)ccc2OCCn2c(C)nc3c(C)nc(-c4ccccc4F)c(C#N)c3c2=O)c2scc(C(=O)O)c2n1 [compound 476], the IC50 [2] was under 50 nM and the IC50 [3] was 33.9 nM.
CCCCc1nc2c(=O)n(CCOc3ccc(Cl)cc3-c3cc(C)nc4c(C(=O)O)csc34)c(C)nc2cc1C(F)(F)F [compound 391] gave an IC50 [2] of under 50 nM and an IC50 [3] of 3.52 nM.
In the case of N#Cc1cc2c(=O)n(CCOc3ccc(Cl)cc3-c3nc(C(=O)O)cs3)cnc2cn1 [compound 81], the IC50 [2] is reported as over 1000 nM and the IC50 [3] is reported as 4220 nM.
Cc1cc(-c2cc(Cl)ccc2OCCn2c(C)nc3cn(C)c(=O)c(C#N)c3c2=O)c2scc(C(=O)O)c2n1 [compound 1005] was tested, and the IC50 [2] was under 50 nM and the IC50 [3] was 33.4 nM.
With Cc1nc2cc(C(F)(F)F)c(N3CCN(C)CC3)c(C#N)c2c(=O)n1CCOc1ccc(Cl)cc1-c1ncnc2ccsc12 [compound 1250] the IC50 [2] was 50 to 1000 nM and the IC50 [1] was 75.8 nM.
Cc1cc(-c2cc(Cl)ccc2OCCn2c(C)nc3cc(C(F)(F)F)c(-c4ccc(Cl)nc4)c(C#N)c3c2=O)c2scc(C(=O)O)c2n1 [compound 1059] gave an IC50 [2] of under 50 nM and an IC50 [3] of 11.1 nM.
In the case of Cc1nc2c(N3CCN(C)CC(F)(F)C3)ncc(C#N)c2c(=O)n1CCOc1ccc(Cl)cc1-c1ccnc2c(C(=O)O)csc12 [compound 838], the IC50 [2] is reported as under 50 nM and the IC50 [3] is reported as 38.7 nM.
For C#Cc1ccc(C#N)c2c(=O)n(CCOc3ccc(Cl)cc3-c3ccnc4c(C(=O)O)csc34)c(C)nc12 [compound 211], the IC50 [2] was under 50 nM and the IC50 [3] was 35.4 nM.
In the case of N#Cc1cncc2nc(CCC(=O)O)n(CCOc3ccc(Cl)cc3-c3ccccc3)c(=O)c12 [compound 48], the IC50 [2] is reported as 50 to 1000 nM and the IC50 [3] is reported as 631 nM.
Work on Cc1cc(-c2cc(Cl)ccc2OCCn2c(C)nc3c(C)nc(C)c(C#N)c3c2=O)c2scc(C(=O)O)c2n1 [compound 492] yielded an IC50 [2] of under 50 nM and an IC50 [3] of 29.7 nM.
Cc1nc2cc(C(F)(F)F)cc(C#N)c2c(=O)n1CCOc1ccc(Cl)cc1-c1nccc2c(C(=O)O)csc12 [compound 225] was tested, and the IC50 [2] was 50 to 1000 nM and the IC50 [3] was 147 nM.
Cc1nc2cnc(N(C)C3CCN(CC(F)(F)F)CC3)c(C#N)c2c(=O)n1CC#Cc1ccc(Cl)cc1-c1ccnc2c(C(=O)NS(=O)(=O)c3cn(C)cn3)csc12 [compound 1667] showed an IC50 [1] of 12.2 nM.
With Cc1nc2cc(C(F)(F)F)c(N3CCN(C)CC3)c(C#N)c2c(=O)n1CCOc1ccc(Cl)cc1-c1ccc(F)c2c(C(=O)O)csc12 [compound 1214] the IC50 [2] was under 50 nM and the IC50 [1] was 5.08 nM.
Cc1cc(-c2cc(Cl)ccc2OCCn2c(C)nc3cc(CN(C)C(C)(C)C)c(OC(F)F)c(C#N)c3c2=O)c2scc(C(=O)O)c2n1 [compound 618] gave an IC50 [2] of under 50 nM and an IC50 [3] of 2.98 nM.
Cc1ccc2nc(C)n(CCOc3ccc(Cl)cc3-c3ccnc4c(C(=O)O)csc34)c(=O)c2c1C#N [compound 572] gave an IC50 [2] of under 50 nM and an IC50 [3] of 30.6 nM.
Cc1nc2cnc(C3CCC(F)(F)C3)c(C#N)c2c(=O)n1CCOc1ccc(Cl)cc1-c1ccnc2c(C(=O)O)csc12 (stereo not shown) [compound 1279] gave an IC50 [1] of 8.91 nM.
For Cc1nc2cnc(N(C)C3CCN([C@H]4C[C@H](OC(F)F)C4)CC3)c(C#N)c2c(=O)n1CC#Cc1ccc(Cl)cc1-c1ccnc2c(C(=O)O)csc12 [compound 1135], the IC50 [2] was under 50 nM and the IC50 [3] was 34.3 nM.
With COc1ncc(-c2cc(Cl)ccc2OCCn2cnc3cnc(C#N)cc3c2=O)nc1C(=O)O [compound 90] the IC50 [2] was over 1000 nM and the IC50 [3] was 1230 nM.
For Cc1nc2c(F)ccc(C#N)c2c(=O)n1CCOc1ccc(Cl)cc1-c1ccnc2c(C(=O)O)csc12 [compound 1373], the IC50 [1] was 26.7 nM.
For Cc1nc2cnc(N3CCN(C)C(C)(C)C3)c(C#N)c2c(=O)n1CCOc1ccc(Cl)cc1-c1ccnc2c(C(=O)O)csc12 [compound 815], the IC50 [2] was under 50 nM and the IC50 [3] was 3.31 nM.
CCN(c1ncc2nc(C)n(CC#Cc3ccc(Cl)cc3-c3ccnc4c(C(=O)NS(=O)(=O)C(C)(C)C)csc34)c(=O)c2c1C#N)C1CCN(C2COC2)CC1 [compound 1747] gave an IC50 [1] of 16.5 nM.
In the case of Cc1nc2cccc(C#N)c2c(=O)n1CCOc1ccc(Cl)cc1-c1cccc(C(=O)O)c1 [compound 1147], the IC50 [2] is reported as under 50 nM and the IC50 [3] is reported as 44.6 nM.
Compound Cc1cc(-c2cc(Cl)ccc2OCCn2c(C)nc3cnc(N4CCC(=O)C4)c(C#N)c3c2=O)c2scc(C(=O)O)c2n1 [compound 884] has an IC50 [2] of under 50 nM and an IC50 [3] of 5.85 nM.
For Cc1nc2cnc(N3CC4(C3)CN(C3CC(F)(F)C3)C4)c(C#N)c2c(=O)n1CCOc1ccc(Cl)cc1-c1ccnc2c(C(=O)O)csc12 [compound 1475], the IC50 [1] was 7.2 nM.
Cc1cc(-c2cc(Cl)ccc2OCCn2c(C)nc3cc(C(F)(F)F)c(N4CCN(C)CC4)nc3c2=O)c2sc(C)c(C(=O)O)c2n1 [compound 1096] showed an IC50 [2] of under 50 nM and an IC50 [3] of 33.5 nM.
In the case of Cc1nc2cc(S(=O)(=O)N(C)C)c(Cl)c(C#N)c2c(=O)n1CCOc1ccc(Cl)cc1-c1ccnc2c(C(=O)O)csc12 [compound 1948], the IC50 [1] is reported as 35.6 nM.
Cc1nc2cc(C(F)(F)F)cc(C#N)c2c(=O)n1CCOc1ccc(Cl)cc1-c1ccnc2c(C(=O)O)cn(C)c12 [compound 320] was tested, and the IC50 [2] was under 50 nM and the IC50 [3] was 43.5 nM.
For Cc1cc(-c2cc(Cl)ccc2OCCn2c(C)nc3c(C)nc(-c4ccc(Cl)cc4)c(C#N)c3c2=O)c2scc(C(=O)O)c2n1 [compound 480], the IC50 [2] was under 50 nM and the IC50 [3] was 7.39 nM.
CCc1cc(-c2cc(Cl)ccc2OCCn2c(C)nc3cc(C(F)(F)F)c(N4CCN(C)CC4)c(C#N)c3c2=O)c2sc(C)c(C(=O)O)c2n1 [compound 1087] gave an IC50 [2] of under 50 nM and an IC50 [3] of 39.2 nM.
Cc1nc2cnc(N(C)C3CC4(C3)CN(C(C)(C)CF)C4)c(C#N)c2c(=O)n1CC#Cc1ccc(Cl)cc1-c1ccnc2c(C(=O)O)csc12 [compound 828] showed an IC50 [2] of under 50 nM and an IC50 [3] of 5.72 nM.

From patent publication US11286268B1, “EIF4E-inhibiting compounds and methods” (EFFECTOR THERAPEUTICS, INC., priority 2019, dated 2022)
